Test results from PMC6637260 (2019).

Tests used:
[1] = test system: F21T (DNA, G4) GGGTTAGGGTTAGGGTTAGGG; test: FRET melting; conditions: 100 mM KCl; 10 mM lithium cacodylate pH 7.2; 1 µM TPE-Im, 200 nM F21T (5:1)
[2] = test system: Tel22 (DNA, G4) AGGGTTAGGGTTAGGGTTAGGG; test: ITC; conditions: 10 mM Tris, 1 mM EDTA, pH 7.4, 20 °C
[3] = test system: ds43 (DNA, duplex) CGTCACGTAAATCGGTTAACAAATGGCTTTCGAAGCTAGCTTC/GAAGCTAGCTTCGAAAGCCATTTGTTAACCGATTTACGTGACG; test: FRET melting competition; conditions: 100 mM KCl; 10 mM lithium cacodylate pH 7.2; 10 equivalents ds43 lower F21T ΔT1/2 from 19.5 to 7 °C

ΔT1/2 [1]: 19.5 °C
Ka ([2]; 100 mM KCl): 2.4 (±1.0).10^5 M^-1
Ka ([2]; 100 mM NaCl): 3.2 (±1.1).10^5 M^-1
binding [3]: weak
Structure (SMILES): C[n+]1ccn(-c2ccc(C(=C(c3ccc(-n4cc[n+](C)c4)cc3)c3ccc(-n4cc[n+](C)c4)cc3)c3ccc(-n4cc[n+](C)c4)cc3)cc2)c1
